From PubChem BioAssay (NCI)
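A five-concentration, 48-hour dose response in 96-well plates underlies each endpoint, interpolated linearly between surrounding concentrations. TGI marks complete inhibition of growth.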

Legend:
Experiment in all cases: DTP human tumour cell line panel, 48 h
BT-549 breast = tested on: BT-549 breast
DU-145 prostate = tested on: DU-145 prostate
HL-60(TB) leukemia = tested on: HL-60(TB) leukemia
NCI/ADR-RES ovarian = tested on: NCI/ADR-RES ovarian
SF-268 CNS = tested on: SF-268 CNS
SF-539 CNS = tested on: SF-539 CNS
SK-MEL-28 melanoma = tested on: SK-MEL-28 melanoma
SR leukemia = tested on: SR leukemia
NCI-H522 lung = tested on: NCI-H522 lung
OVCAR-8 ovarian = tested on: OVCAR-8 ovarian

Structure (SMILES)	TGI (BT-549 breast) [µM]	TGI (DU-145 prostate) [µM]	TGI (HL-60(TB) leukemia) [µM]	TGI (NCI/ADR-RES ovarian) [µM]	TGI (SF-268 CNS) [µM]	TGI (SF-539 CNS) [µM]	TGI (SK-MEL-28 melanoma) [µM]	TGI (SR leukemia) [µM]	TGI (NCI-H522 lung) [µM]	TGI (OVCAR-8 ovarian) [µM]
CC1CC[C@@]2(OC1)OC1C[C@H]3[C@@H]4C/C(=N\N(C)C)[C@@]5(O)CC(O)CC[C@]5(C)[C@H]4CC[C@]3(C)C1[C@@H]2C (stereo not given in full)	> 100	> 100	54.3	> 100	> 100	> 100	> 100	54.6		
O=c1[nH]c(=O)n(C2CC(O)C(CO)O2)cc1OCCCc1ccccc1 (stereo not given)	> 100	> 100	> 100	> 100	> 100		> 100		> 100	> 100
COc1cccc(NC(=S)Nn2c(C)nc3ccccc3c2=O)c1			> 100		> 100	> 100	> 100	> 100	> 100	> 100
Cn1c(=O)cc(NCc2ccc(Cl)cc2)[nH]c1=O	> 100			> 100	69.1	> 100	> 100		> 100	> 100
COc1cc(-c2oc3c(OC)c(O)c(OC)c(O)c3c(=O)c2OC)cc(O)c1OC		> 100	57.9	52.7		45.4	> 100		> 100	> 100
N#CCCN(CCC#N)c1ccc(C(N=Nc2ccccc2)=Nc2ccccc2)cc1	> 100	> 100		> 100	> 100	> 100	> 100	> 100	> 100	> 100
O=C1CN2Cc3cc(N4CCOCC4)ccc3N=C2N1	> 100	> 100	> 100	> 100			> 100	> 100		> 100
CCC1=CC2CN3CCc4c([nH]c5ccccc45)C(C(=O)OC)(C2)C13 (stereo not given)			125	110	101	92.8	98.4		102	14.7
CCCCc1c2c(nc3c1CCCC3O)/C(=C/c1ccccc1)CCC2 (stereo not given)			43		85.3	66.9	94.3	42	52.5	> 100
CC1=C2C(=O)[C@H]3[C@@H](CC=C4C[C@@H](O)CC[C@@]43C)[C@@H]2CC[C@]12O[C@@H]1C[C@H](C)CN[C@H]1[C@H]2C	> 100	> 100	> 65.5	> 100	> 66.7	> 61.6	> 92.1		> 59.6	> 69.1
Cc1cn(C2CCC(/C=N\O)O2)c(=O)[nH]c1=O (stereo not given)	> 100	> 100		> 100		> 100	> 100	> 100		> 100
COc1ccc(N=C(C)c2ccncc2)cc1	> 100	> 100		> 100	> 100	61.4	> 100		> 100	> 100
COc1ccc2nc3cccc([N+](=O)[O-])c3c(NCCO)c2c1		0.0619	0.0943	0.0939	0.111	0.052	0.0626		0.043	0.0532
CC1(C)C(=O)C(C)(C)C12SSC1(S2)C(C)(C)C(=O)C1(C)C	> 100	> 100	21.1	> 100	> 100	> 100	> 100	> 100		> 100
CCOc1ccc(/C(O)=C/c2nc3ccccc3nc2/C=C(\O)c2ccc(OCC)cc2)cc1	> 100	> 100	> 100		> 100	> 100	> 100	26.6	> 100	
CC(C)NC(=O)CN1CCN(C2=CC(=O)c3c(O)ccc(O)c3C2=O)CC1	32.1	29.7	5.99	25.5	53.1	30.5	31.6		34.5	> 54
O=C(CC(=O)N1N=C(N2CCCCC2)CC1c1ccccc1)Nc1ccc(Cl)cc1 (stereo not given)	> 100	> 100	> 100	> 100	> 100		> 100		> 100	> 100
N#Cc1c(-c2ccco2)cc(-c2ccc(NCc3nc4ccccc4[nH]3)cc2)nc1N			47.3		> 100	47.6	67.5		55.5	46.3
CCOC(=O)c1c(C)c2c(n1C)CCc1cn[nH]c1-2			> 100	> 100	> 100	> 100	> 100		> 100	> 100
COc1nc(SC)nc2c1cnn2C1OC(C(O)CO)C(OC)C1O (stereo not given)			> 100	> 100	> 100	> 100	> 100		> 100	> 100
OC12COc3ccccc3C1Oc1ccccc1C2 (stereo not given)	> 100	> 100		> 100	> 100	> 100			> 100	> 100
COC(OC)c1cccc2c1C(=O)CCC1(O)c3ccccc3C1C2 (stereo not given)			> 100		> 100	> 100	> 100	> 100	> 100	> 100
CCCCC(C)C1CCC2(C)C=CC(=O)C(C)=C2C1O (stereo not given)			> 100	> 100	> 100	> 100	> 100		> 100	> 100
O=C(O)C1CCCN1Cc1cc2ccccc2c2ccccc12 (stereo not given)	> 100	> 100	> 100	> 100	> 100	> 100	> 100		> 100	> 100
Nc1nc(SCCNC(=O)CCc2ccc(O)cc2)nc2c1ncn2C1OC(CO)C(O)C1O (stereo not given)			> 203		> 203	> 203	> 203	> 203	> 203	> 203
